Assay [1] concerns the target T1, SUCNR1 (Mus musculus, UniProt Q99MT6).
T1 construct: endogenous in cells; host or cells: live mice; C57/B6 is stated for the periodontitis model, and no strain is stated for the LPS model
T1 sequence (Q99MT6 1-317): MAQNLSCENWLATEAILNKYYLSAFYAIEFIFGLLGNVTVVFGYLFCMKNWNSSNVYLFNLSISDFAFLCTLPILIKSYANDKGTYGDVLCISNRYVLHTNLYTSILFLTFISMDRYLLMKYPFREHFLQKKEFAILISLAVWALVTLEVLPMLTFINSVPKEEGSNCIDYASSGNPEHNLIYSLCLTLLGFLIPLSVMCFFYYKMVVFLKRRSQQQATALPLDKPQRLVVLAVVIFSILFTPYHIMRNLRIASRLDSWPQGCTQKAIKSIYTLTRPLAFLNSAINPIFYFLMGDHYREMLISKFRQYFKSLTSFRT
Description: LPS-induced neuroinflammation in mice, oral gavage of 7a (FIG. 16). The format is in vivo. Particulars: LPS-treated mice. As to the method: FIG. 16. […] A. Experimental design and treatment regime. 12-week-old male mice were randomly divided into 3 groups to receive inflammation induction (LPS) and treatment (7a) at indicated timepoints. PBS was used as the control solution to LPS and 20% DMSO in PBS (vehicle) was used as the control solution to 7a. The RNA samples were collected in TRIZol and extracted after perfusion. TNFα and IL1β mRNA levels were measured by Realtime PCR using specific primers and normalized to β-actin. B. Cerebellum, C. Hippocampus and D. Cortex. (* p<0.05. ** p<0.005, *** p<0.0005, **** p<0.0001 One-way ANOVA with post-hoc Tukey test).
Targeting SUCNR1 with topical 7a application reduced periodontitis as well as the associated neuroinflammation in mice. […] Thus, mice were pretreated 7a or vehicle through oral gavage 30 minutes before giving LPS intraperitoneally to induce neuroinflammation. The administration of 7a at 8 hours and 16 hours was repeated after the first dose. The mouse blood samples were collected through cardiac puncture at 24 hours (FIG. 16A). Immediately afterward, PBS was used to perfuse the mice to minimize the impact of blood cells to the gene expression of the brain tissues. The brain tissue samples were collected and the cerebellum, hippocampus, and cortex were micro-dissected and processed for RNA extraction and gene expression analysis.
The 7a solution was prepared as follows. 100 mM 7a stock solution was prepared using DMSO. Then the 7a stock solution was further diluted with PBS to become 20 mM 7a working solution and used for oral gavage to mice. DMSO in PBS (at 20% v/v) was used as vehicle. Based on the animals' body weight, 25 gram mice will receive 100 μL gavage volume) 7a working solution or vehicle. The treatment dose of 7a is 80 μmol/kg.

The target of assay [2] is T1, SUCNR1. The assay can be described thus: Ligature plus F. nucleatum induced periodontitis in mice, topical 7a gel formulation (FIG. 11). The format is in vivo. As to the method: FIG. 11. Targeting SUCNR1 suppressed periodontitis and neuroinflammation. A. Study design. Periodontitis was induced in 14-week-old mice with a 6-0 silk ligature (Roboz Surgical Instrument Co., MD, USA) around the maxillary right side second molar. The ligature were kept in place for 5 days before removal. Sterile swabs soaked in 100 μl of 2.5×10^9/ml F. nucleatum in PBS and inoculated into mice around the ligature affected gingival tissues for 30 seconds. Inoculations were performed twice a week for four weeks. Mice were randomly assigned to receive 3 μl vehicle or 7a gel formulation every other day by topical application. B. Representative μCT images; C. The distance between CEJ to alveolar bone crest. D. IL-1β mRNA levels in the gingivae around the ligature site. E. Serum IL-1β levels. *p<0.05, ** p<0.01, *** p<0.001).
A novel mechanism connecting chronic peripheral inflammation and neuroinflammation. […] Inflammation was induced in 14-week-old C57/B6 mice by placing a ligature on the 2nd maxillary molar for 5-days plus twice/week inoculations of a key periodontal pathogen Fusobacteria nucleatum (Fn) for 4-weeks (FIG. 1A). […] This local inflammation was accompanied with the induction of neuroinflammation evidenced by the activation of microglia (FIG. 1D) and increased IL1β levels in hippocampus, cortex and cerebellum (FIG. 1E-G).
Six in situ gel formulations (ISGs) were produced by varying polymer concentration, changing the hydrophobicity of the solvent system, and use of different plasticizers (such as PEG200). All these ISGs were analyzed by FT-IR/ATR and HPLC assay for drug-polymer compatibility. In vitro drug release experiments were performed to assess the profile of sustained release with controlled initial burst release. One gel formulation was chosen to treat periodontitis animals in-vivo at 1 μg/10 g body weight three times/week (FIG. 11).
To determine if succinate receptor 1 inhibitors could reduce inflammation, succinate receptor 1 inhibitors were administered to mice. In this study (FIG. 11), mice with periodontal disease were used because of the resulting neuroinflammation from the periodontal disease. Topical application of POC7a gel formulation was administered at 1 μg/10 g body weight three times/week.

For the next assay, the system named is Fusobacterium nucleatum. As to the method: FIG. 5. Fusobacterium nucleatum growth and virulence gene expression. A. F. nucleatum growth in media supplemented with indicated succinate concentrations shown as optical density measures over time (n=3, SEM). Different letters indicate statistically different from one another (ANOVA, p<0.05 by post-hoc Tukey's). B Relative expressions of virulence genes of F. nuleactum in 100 uM of succinate as determine by RT-PCR. (mean±SEM. ** p<0.01, * p<0.05).

For assay [3] the following is noted: mice; succinate IP daily (4 mM/kg) for 4 weeks vs PBS. As to the method: FIG. 3. […] Mice received daily intraperitoneal (IP) injection with PBS or Succinate (4 mM/kg) for 4 weeks before sample collection. […] B. Alpha Diversity measured by the Observed number of ASVs, and Phylogenetic diversity index for oral swab samples. C. […] D. Network plot generated in Cytoscape 3.8.2. The small gray dots represent ASVs, the white circles represent WT samples, the yellow triangles represent WT_Suc samples. Edges represent the interaction of sample and ASV are colored based on sample type.

[4] abbreviates: 7a oral gavage 80 μmol/kg, 3 doses, mRNA at 24 hours.
Setting [5] is: mice with periodontitis, topical gel.

We go through two molecules from patent publication US20230293504A1, “TARGETING SUCNR1 TO REDUCE NEUROINFLAMMATION” (New York University, priority 2022, published 2023).

`CNC(=O)Cc1ccc(-c2ccc3cccnc3n2)cc1` [7a]: at SUCNR1 [1] (setting [4]), the “IL1β expression in the cerebellum” value is on record as “less induction”, the “IL1β expression in the hippocampus” value is given as “less induction”, the “TNFα expression in the cerebellum” value is given as “less induction” and the “TNFα expression in the cortex” value was “reduced”. Moreover, the “TNFα expression in the hippocampus” value on SUCNR1 [1] (setting [4]) was “less induction”. In addition, on SUCNR1 [1] (oral gavage), the neuroinflammation entry is on record as “reduced neuroinflammation”. Also, at SUCNR1 [2] (setting [5]), the “IL1β levels in cerebellum tissues” value was “significant reduction”, the “IL1β levels in hippocampal tissues” value is “significant reduction” and the “systemic IL1β levels in the serum” value was “reduced”. In addition, the “local IL1β levels in the gingiva” value on SUCNR1 [2] (mice with periodontitis, topical gel, mRNA around the ligature site) is on record as “reduced”. In addition, the “periodontitis (μCT, distance between CEJ to alveolar bone crest)” value at SUCNR1 [2] (mice, ligature + F. nucleatum, oral topical gel formulation every other day) is “inhibited periodontitis”.

For the molecule `O=C(O)CCC(=O)O` [succinate], the “expression of virulence factors (Hemin receptor, Hemolysin, Hemolysin-related protein, Lys R Family transcriptional regulator)” value in the assay on Fusobacterium nucleatum (100 uM of succinate, RT-PCR) is recorded as “elevated”. The “F. nucleatum growth (optical density)” value with Fusobacterium nucleatum (media supplemented with succinate) was “elevated”. Also, in assay [3], the “dysbiosis in the oral microbiota (alpha and beta diversity)” value is listed as “increased”; the “serum IL-1β levels” value is listed as “increased”.
